Earlier results in US8835486B2, “Pharmaceutical formulation containing an HMG-COA reductase inhibitor and method for the preparation thereof” (priority 2006, dated 2014).

CC(C)n1c(/C=C/C(O)CC(O)CC(=O)O)c(-c2ccc(F)cc2)c2ccccc21 (stereo not shown) [Fluvastatin]
solubility in water: > 50 mg/mL
